Source: US20260001928A1 (CORTERIA PHARMACEUTICALS, priority 2022, published 2026)
*1 amine or outer side, *2 acyl side, *3 side chain or, on linkers, in order; H or OH if unused. Where a SMILES comes first, the peptide text is derived from it. Side-chain parts run from the residue outwards. [ ]: non-standard residue; d: D form. The star is where a group is joined. C18 diacid = O=C(O)CCCCCCCCCCCCCCCCC(=O)*; C16 diacid = O=C(O)CCCCCCCCCCCCCCC(=O)*; γGlu = O=C(O)[C@H](CCC(=O)[*:2])N[*:1]; C14 diacid = O=C(O)CCCCCCCCCCCCC(=O)*; C12 diacid = O=C(O)CCCCCCCCCCC(=O)*; NMeI = CC[C@H](C)[C@H](NC)C(=O)O; Dap = NC[C@H](N)C(=O)O; AEEA = NCCOCCOCC(=O)O; Aib = CC(C)(N)C(=O)O; Butyryl = CCCC(=O)*

Key:
human CRF2a receptor = molecular target: T1, human CRF2a receptor (Homo sapiens, UniProt Q13324); experiment: Activity at human CRF2a receptor, cAMP functional assay in TeloHEAC cells; format: cell-based; conditions: TeloHEAC cells stably expressing human CRF2a receptor, relative to urocortin 2 (100 nM = 100%)
T1 construct: expressed in transfected cells; host or cells: TeloHEAC cells
T1 sequence (Q13324 1-411): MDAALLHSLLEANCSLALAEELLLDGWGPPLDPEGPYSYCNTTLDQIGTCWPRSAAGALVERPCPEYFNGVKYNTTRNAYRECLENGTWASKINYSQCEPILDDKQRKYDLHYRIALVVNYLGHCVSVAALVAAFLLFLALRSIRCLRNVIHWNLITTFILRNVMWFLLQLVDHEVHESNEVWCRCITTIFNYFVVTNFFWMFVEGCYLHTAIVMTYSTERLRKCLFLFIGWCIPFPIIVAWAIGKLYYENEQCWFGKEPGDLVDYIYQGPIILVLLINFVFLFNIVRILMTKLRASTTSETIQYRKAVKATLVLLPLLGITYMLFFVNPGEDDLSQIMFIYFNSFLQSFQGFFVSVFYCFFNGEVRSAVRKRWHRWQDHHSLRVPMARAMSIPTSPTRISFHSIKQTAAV
In short: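 TeloHEAC cells stably expressing human CRF2a (10000 cells/well, suspended in HBSS/20 mM HEPES with 2 mM IBMX) were exposed to compounds for 30 min at 37 °C. cAMP was read as the 665/620 nm fluorescence ratio after 1 h at room temperature. EC50 was derived relative to 100 nM urocortin 2, set as 100%.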

CFR1R receptor = molecular target: T2, CFR1R receptor (Homo sapiens, UniProt P34998); experiment: Activity at anti-target CFR1R receptor, cAMP assay in CRF1R-overexpression CHO-K1 cells; format: cell-based; conditions: 100% = Sauvagine at 100 nM; for EC50: cAMP
T2 construct: host or cells: CHO-K1 (clone 2)
T2 sequence (P34998 24-415): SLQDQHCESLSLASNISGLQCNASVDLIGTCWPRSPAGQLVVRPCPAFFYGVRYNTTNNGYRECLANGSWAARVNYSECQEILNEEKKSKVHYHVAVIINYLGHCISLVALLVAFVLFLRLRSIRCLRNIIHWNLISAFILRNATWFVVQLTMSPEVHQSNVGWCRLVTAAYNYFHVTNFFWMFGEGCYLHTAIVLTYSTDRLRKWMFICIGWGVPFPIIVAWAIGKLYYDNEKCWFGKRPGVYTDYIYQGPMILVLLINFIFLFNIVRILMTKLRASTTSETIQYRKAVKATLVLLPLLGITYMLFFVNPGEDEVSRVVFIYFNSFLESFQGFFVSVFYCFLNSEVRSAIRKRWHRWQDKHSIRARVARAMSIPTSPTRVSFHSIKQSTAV
In short: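 Uses frozen stocks of CHO-K1 clone 2 cells overexpressing human CRF1R, plated at 4000 cells/well final, with cAMP measured by the same protocol as the TeloHAEC line. Full-activation control: 100 nM Sauvagine.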

SMILES	EC50 (human CRF2a receptor) [nM]	Emax (% I) (CFR1R receptor)	EC50 (CFR1R receptor) [nM]
CC[C@H](C)[C@H](NC)C(=O)N[C@H](C(=O)N[C@@H](CC(C)C)C(=O)N[C@@H](CO)C(=O)N[C@@H](CC(C)C)C(=O)N[C@@H](CC(=O)O)C(=O)N[C@@H](C(=O)N1CCC[C@H]1C(=O)N[C@H](C(=O)N[C@@H](CCCCN)C(=O)N[C@@H](CC(C)C)C(=O)N[C@@H](CCCCNC(=O)COCCOCCNC(=O)COCCOCCNC(=O)CC[C@H](NC(=O)CC[C@H](NC(=O)CCCCCCCCCCCCC(=O)O)C(=O)O)C(=O)O)C(=O)N[C@@H](CCCCN)C(=O)N[C@H](C(=O)N[C@@H](CC(C)C)C(=O)N[C@@H](CC(C)C)C(=O)N[C@@H](CCC(=O)O)C(=O)N[C@@H](CCC(N)=O)C(=O)N[C@@H](CCC(=O)O)C(=O)N[C@@H](CCCCN)C(=O)N[C@@H](CCC(N)=O)C(=O)N[C@@H](CCCCN)C(=O)N[C@@H](CCCCN)C(=O)N[C@@H](CCC(N)=O)C(=O)N[C@@H](CCCNC(=N)N)C(=O)N[C@@H](CCC(=O)O)C(=O)N[C@@H](CCC(N)=O)C(=O)N[C@@H](C)C(=O)N[C@@H](CCC(=O)O)C(=O)N[C@H](C(=O)N[C@@H](CC(N)=O)C(=O)NC(C)(C)C(=O)N[C@@H](CCC(N)=O)C(=O)N[C@H](C(=O)N[C@@H](CC(C)C)C(=O)N[C@@H](C)C(=O)N[C@@H](CCC(N)=O)C(=O)N[C@H](C(N)=O)C(C)C)[C@@H](C)CC)[C@@H](C)O)[C@@H](C)CC)[C@@H](C)CC)C(C)C)C(C)C [compound 179] (H-[NMeI]VLSLD[dV]PIKLK([AEEA-AEEA-γGlu-γGlu-C14 diacid])KILLEQEKQKKQREQAETN[Aib]QILAQV-NH2)	15.5	−4	> 250
CC[C@H](C)[C@H](NC)C(=O)N[C@H](C(=O)N[C@@H](CC(C)C)C(=O)N[C@@H](CO)C(=O)N[C@@H](CC(C)C)C(=O)N[C@@H](CC(=O)O)C(=O)N[C@@H](C(=O)N1CCC[C@H]1C(=O)N[C@H](C(=O)N[C@@H](CCCCN)C(=O)N[C@@H](CC(C)C)C(=O)N[C@@H](CCCCNC(=O)COCCOCCNC(=O)COCCOCCNC(=O)CC[C@H](NC(=O)CCCCCCCCCCCCCCCCC(=O)O)C(=O)O)C(=O)N[C@@H](CCCCN)C(=O)N[C@H](C(=O)N[C@@H](CC(C)C)C(=O)N[C@@H](CC(C)C)C(=O)N[C@@H](CCC(=O)O)C(=O)N[C@@H](CCC(N)=O)C(=O)N[C@@H](CCC(=O)O)C(=O)N[C@@H](CCCCN)C(=O)N[C@@H](CCC(N)=O)C(=O)N[C@@H](CCCCN)C(=O)N[C@@H](CCCCN)C(=O)N[C@@H](CCC(N)=O)C(=O)N[C@@H](CCCNC(=N)N)C(=O)N[C@@H](CCC(=O)O)C(=O)N[C@@H](CCC(N)=O)C(=O)N[C@@H](C)C(=O)N[C@@H](CCC(=O)O)C(=O)N[C@H](C(=O)N[C@@H](CC(N)=O)C(=O)N[C@@H](CCC(=O)O)C(=O)N[C@@H](CCC(N)=O)C(=O)N[C@H](C(=O)N[C@@H](CC(C)C)C(=O)N[C@@H](C)C(=O)N[C@@H](CCC(N)=O)C(=O)N[C@H](C(N)=O)C(C)C)[C@@H](C)CC)[C@@H](C)O)[C@@H](C)CC)[C@@H](C)CC)C(C)C)C(C)C [compound 116] (H-[NMeI]VLSLD[dV]PIKLK([AEEA-AEEA-γGlu-C18 diacid])KILLEQEKQKKQREQAETNEQILAQV-NH2)	0.37	0	> 250

Now from value to compound:

EC50 (human CRF2a receptor) [nM]	Emax (% I) (CFR1R receptor)	EC50 (CFR1R receptor) [nM]	SMILES
0.38	10	> 250	CCCC(=O)N[C@H](C(=O)N[C@@H](CC(C)C)C(=O)N[C@@H](CO)C(=O)N[C@@H](CC(C)C)C(=O)N[C@@H](CC(=O)O)C(=O)N[C@@H](C(=O)N1CCC[C@H]1C(=O)N[C@H](C(=O)N[C@@H](CCCCN)C(=O)N[C@@H](CC(C)C)C(=O)N[C@@H](CCCCNC(=O)CC[C@H](NC(=O)CCCCCCCCCCCCCCC(=O)O)C(=O)O)C(=O)N[C@@H](CCCCN)C(=O)N[C@H](C(=O)N[C@@H](CC(C)C)C(=O)N[C@@H](CC(C)C)C(=O)N[C@@H](CCC(=O)O)C(=O)N[C@@H](CCC(N)=O)C(=O)N[C@@H](CCC(=O)O)C(=O)N[C@@H](CCCCN)C(=O)N[C@@H](CCC(N)=O)C(=O)N[C@@H](CCCCN)C(=O)N[C@@H](CCCCN)C(=O)N[C@@H](CCC(N)=O)C(=O)N[C@@H](CCCNC(=N)N)C(=O)N[C@@H](CCC(=O)O)C(=O)N[C@@H](CCC(N)=O)C(=O)N[C@@H](C)C(=O)N[C@@H](CCC(=O)O)C(=O)N[C@H](C(=O)N[C@@H](CC(N)=O)C(=O)NC(C)(C)C(=O)N[C@@H](CCC(N)=O)C(=O)N[C@H](C(=O)N[C@@H](CC(C)C)C(=O)N[C@@H](C)C(=O)N[C@@H](CCC(N)=O)C(=O)N[C@H](C(N)=O)C(C)C)[C@@H](C)CC)[C@@H](C)O)[C@@H](C)CC)[C@@H](C)CC)C(C)C)C(C)C [compound 79] (Butyryl-VLSLD[dV]PIKLK([γGlu-C16 diacid])KILLEQEKQKKQREQAETN[Aib]QILAQV-NH2)
0.79	2	> 250	CC[C@H](C)[C@H](NC)C(=O)N[C@H](C(=O)N[C@@H](CC(C)C)C(=O)N[C@@H](CO)C(=O)N[C@@H](CC(C)C)C(=O)N[C@@H](CC(=O)O)C(=O)N[C@@H](C(=O)N1CCC[C@H]1C(=O)N[C@H](C(=O)N[C@@H](CCCCN)C(=O)N[C@@H](CC(C)C)C(=O)N[C@@H](CCCCNC(=O)CC[C@H](NC(=O)CCCCCCCCCCC(=O)O)C(=O)O)C(=O)N[C@@H](CCCCN)C(=O)N[C@H](C(=O)N[C@@H](CC(C)C)C(=O)N[C@@H](CC(C)C)C(=O)N[C@@H](CCC(=O)O)C(=O)N[C@@H](CCC(N)=O)C(=O)N[C@@H](CCC(=O)O)C(=O)N[C@@H](CCCCN)C(=O)N[C@@H](CCC(N)=O)C(=O)N[C@@H](CCCCN)C(=O)N[C@@H](CCCCN)C(=O)N[C@@H](CCC(N)=O)C(=O)N[C@@H](CCCNC(=N)N)C(=O)N[C@@H](CCC(=O)O)C(=O)N[C@@H](CCC(N)=O)C(=O)N[C@@H](C)C(=O)N[C@@H](CCC(=O)O)C(=O)N[C@H](C(=O)N[C@@H](CC(N)=O)C(=O)NC(C)(C)C(=O)N[C@@H](CCC(N)=O)C(=O)N[C@H](C(=O)N[C@@H](CC(C)C)C(=O)N[C@@H](C)C(=O)N[C@@H](CCC(N)=O)C(=O)N[C@H](C(N)=O)C(C)C)[C@@H](C)CC)[C@@H](C)O)[C@@H](C)CC)[C@@H](C)CC)C(C)C)C(C)C [compound 186] (H-[NMeI]VLSLD[dV]PIKLK([γGlu-C12 diacid])KILLEQEKQKKQREQAETN[Aib]QILAQV-NH2)
0.17	0	> 250	CC[C@H](C)[C@H](NC)C(=O)N[C@H](C(=O)N[C@@H](CC(C)C)C(=O)N[C@@H](CO)C(=O)N[C@@H](CC(C)C)C(=O)N[C@@H](CC(=O)O)C(=O)N[C@@H](C(=O)N1CCC[C@H]1C(=O)N[C@H](C(=O)N[C@@H](CCCCN)C(=O)N[C@@H](CC(C)C)C(=O)N[C@@H](CCCCNC(=O)CC[C@H](NC(=O)CCCCCCCCCCCCCCC(=O)O)C(=O)O)C(=O)N[C@@H](CCCCN)C(=O)N[C@H](C(=O)N[C@@H](CC(C)C)C(=O)N[C@@H](CC(C)C)C(=O)N[C@@H](CCC(=O)O)C(=O)N[C@@H](CCC(N)=O)C(=O)N[C@@H](CCC(=O)O)C(=O)N[C@@H](CCCCN)C(=O)N[C@@H](CCC(N)=O)C(=O)N[C@@H](CCCCN)C(=O)N[C@@H](CCCCN)C(=O)N[C@@H](CCC(N)=O)C(=O)N[C@@H](CCCNC(=N)N)C(=O)N[C@@H](CCC(=O)O)C(=O)N[C@@H](CCC(N)=O)C(=O)N[C@@H](C)C(=O)N[C@@H](CCC(=O)O)C(=O)N[C@H](C(=O)N[C@@H](CC(N)=O)C(=O)N[C@@H](CN)C(=O)N[C@@H](CCC(N)=O)C(=O)N[C@H](C(=O)N[C@@H](CC(C)C)C(=O)N[C@@H](C)C(=O)N[C@@H](CCC(N)=O)C(=O)N[C@H](C(N)=O)C(C)C)[C@@H](C)CC)[C@@H](C)O)[C@@H](C)CC)[C@@H](C)CC)C(C)C)C(C)C [compound 70] (H-[NMeI]VLSLD[dV]PIKLK([γGlu-C16 diacid])KILLEQEKQKKQREQAETN[Dap]QILAQV-NH2)
